This note sets out measurements from patent US20120245184A1 (Aderans Research Institute, Inc., priority 2006, published 2012).

Each structure is given as a SMILES string.

Assay [1] relates to C57BL/6 male mice. The assay is described as follows: DHT-induced alopecia (mouse model of male pattern baldness). The assay is classed as in vivo. Conditions: DHT pellet (2.5 mg 21 day) implanted subcutaneously; dosed topically once; visually graded for melanogenesis and hair regrowth. How it is done: (§1) A mouse model of male pattern baldness is used to investigate the effectiveness of the present compounds for growing hair. Agonists for the sonic hedgehog pathway that act by binding and activating Smoothened were tested in a formulation of 50:30:20 PG:EtOH:water or 5:95 DMSO:acetone vehicle. C57BL/6 male mice (48-52 days old on arrival) from Charles River Labs were used on the study. The mice were housed and cared for according to established procedures. Food and water were ad libitum. On Day 0, the mice were shaved on their lower back, an area of ˜1.5 inches×˜2 inches with Wahl clippers using a surgical blade. On day −3, the mice were anesthetized with isoflurane, their back was rinsed with a pad of 70% ethanol, a placebo pellet or a DHT pellet (2.5 mg 21 day pellet) were implanted subcutaneously between the shoulder blades with a 10 gauge trochar. DHT pellet transplantation results in maintenance of existing hair follicles in the resting (telogen) phase. The hole was stapled with a sterile autoclip and the mice were returned to their cage after awaking. The mice were dosed topically once and visually graded daily, except weekends, for melanogenesis and hair regrowth of fur in the dosed area (Table 4).
In the absence of treatment with the present compounds, the follicles remain in telogen rather than following the normal time course of the mouse hair cycle.

Assay [2] relates to C57BL/6 male mice. The experiment in a line: C57BL/6 hair growth after topical dosing. Type of assay: in vivo, mouse. The note with it: dosed topically once on shaved lower back; visually graded for melanogenesis and hair regrowth. As for the experimental part:
as §1

On to `CN[C@H]1CC[C@H](N(Cc2cc(-c3ccccc3)ccc2OC)C(=O)c2sc3ccccc3c2Cl)CC1`, for which the “Androgenetic Alopecia” value in assay [1] was “yes”. For the same molecule, the “C57BL/6 Hair Growth” value in assay [2] is “yes”.
`CN[C@H]1CC[C@H](N(Cc2cc(-c3cc(C)nc(C)c3)ccc2OC)C(=O)c2sc3ccccc3c2Cl)CC1`: the “Androgenetic Alopecia” value in assay [1] is on record as “yes”. Besides, the “C57BL/6 Hair Growth” value in assay [2] is reported as “yes”.
`CN[C@H]1CC[C@H](N(Cc2cc(-c3ccc(C(N)=O)cc3)ccc2OC)C(=O)c2sc3c(F)ccc(F)c3c2Cl)CC1`: in assay [1], the “Androgenetic Alopecia” value is “yes”. Further, the “C57BL/6 Hair Growth” value in assay [2] is “yes”.
Take `CN[C@H]1CC[C@H](N(Cc2cc(-c3ccc(N)nc3)ccc2OC)C(=O)c2sc3cccc(F)c3c2Cl)CC1` [drawing 702]: in assay [1], the “Androgenetic Alopecia” value was “yes”. In assay [2], the “C57BL/6 Hair Growth” value is given as “yes”.
